# In patent publication US8377434B2, “Cosmetic composition for exfoliating skin keratin” (Amorepacific Corporation, priority 2006, dated 2013):
# Tested on: skin
# Assay: in vivo and ex vivo studies of N-acetyl glucosamine on skin
smiles,measurement,setting,value
CC(=O)N[C@H]1C(O)O[C@H](CO)[C@@H](O)[C@@H]1O (some centres unmarked) [N-acetyl glucosamine],production of hyaluronic acid,,promote the production of hyaluronic acid
same,"improvement of excessive pigmentation, skin tone and barrier function",in vivo and ex vivo studies,"effective in improving excessive pigmentation, skin tone and barrier function"
